Test results from ChEMBL document CHEMBL4196029, “New MD2 inhibitors derived from curcumin with improved anti-inflammatory activity” (Eur J Med Chem, 2018).
The source made the active and inactive calls. No cut-off for these calls is given here.

Tests used:
Peritoneal macrophage [1] = experiment: Anti-inflammatory activity in C57BL/6 mouse primary peritoneal macrophages assessed as inhibition of LPS-induced TNFalpha secretion at 10 uM preincubated for 30 mins followed by LPS addition measured after 24 hrs by ELISA relative to control; format: functional; details: for inhibition at 10 µM: C57BL/6, Peritoneal macrophage
[2] = Chemical stability in pH 7.4 phosphate buffer at 20 uM measured at 5 mins time intervals for 25 mins by UV absorbance spectroscopic method; format: physicochemical; details: pH 7.4, 25 min
Peritoneal macrophage [3] = experiment: Anti-inflammatory activity in C57BL/6 mouse primary peritoneal macrophages assessed as inhibition of LPS-induced IL-6 secretion at 10 uM preincubated for 30 mins followed by LPS addition measured after 24 hrs by ELISA relative to control; format: functional; details: for inhibition at 10 µM: C57BL/6, Peritoneal macrophage
Peritoneal macrophage [4] = experiment: Anti-inflammatory activity in C57BL/6 mouse primary peritoneal macrophages assessed as inhibition of LPS-induced TNFalpha secretion at 5 uM preincubated for 30 mins followed by LPS addition measured after 24 hrs by ELISA relative to control; format: functional; details: C57BL/6, Peritoneal macrophage
Peritoneal macrophage [5] = experiment: Anti-inflammatory activity in C57BL/6 mouse primary peritoneal macrophages assessed as inhibition of LPS-induced IL-6 secretion at 1 to 10 uM preincubated for 30 mins followed by LPS addition measured after 24 hrs by ELISA; format: functional, cell-based
Peritoneal macrophage [6] = experiment: Anti-inflammatory activity in C57BL/6 mouse primary peritoneal macrophages assessed as inhibition of LPS-induced TNFalpha secretion at 1 to 10 uM preincubated for 30 mins followed by LPS addition measured after 24 hrs by ELISA; format: functional, cell-based
Peritoneal macrophage [7] = experiment: Anti-inflammatory activity in C57BL/6 mouse primary peritoneal macrophages assessed as inhibition of LPS-induced IL-6 secretion at 2.5 uM preincubated for 30 mins followed by LPS addition measured after 24 hrs by ELISA relative to control; format: functional; details: C57BL/6, Peritoneal macrophage

| Stability [2] | Structure (SMILES) | inhibition (Peritoneal macrophage [1]) | inhibition (Peritoneal macrophage [3]) | inhibition at 10 µM (Peritoneal macrophage [1]) | inhibition at 10 µM (Peritoneal macrophage [3]) | inhibition at 5 µM (Peritoneal macrophage [4]) | inhibition (Peritoneal macrophage [5]) | inhibition (Peritoneal macrophage [6]) | inhibition at 2.5 µM (Peritoneal macrophage [7]) |
| --- | --- | --- | --- | --- | --- | --- | --- | --- | --- |
| Unstable | COc1cc(/C=C/C(=O)CC(=O)/C=C/c2ccc(O)c(OC)c2)ccc1O [CURCUMIN] | Active | Active |  |  |  |  |  |  |
|  | COc1cc(/C=C2\CSC/C(=C\c3cc(OC)c(OC)c(OC)c3)C2=O)cc(OC)c1OC |  |  | 25% | 60% |  |  |  |  |
|  | CCN1C/C(=C\c2ccc(F)cc2)C(=O)/C(=C/c2ccc(F)cc2)C1 |  |  | > 80% | > 80% | > 50% | Active | Active | > 50% |
|  | COc1ccc(/C=C2\COC/C(=C\c3ccc(OC)c(OC)c3)C2=O)cc1OC | inactive | inactive |  |  |  |  |  |  |
|  | COc1cccc(/C=C2\COC/C(=C\c3cccc(OC)c3OC)C2=O)c1OC | Active | Active |  |  |  |  |  |  |
|  | COc1ccc(/C=C2\COC/C(=C\c3ccc(OC)cc3)C2=O)cc1 | inactive | inactive |  |  |  |  |  |  |
|  | COc1ccccc1/C=C1\COC/C(=C\c2ccccc2OC)C1=O | Active | Active |  |  |  |  |  |  |
| Unstable | CN1C/C(=C\c2ccccc2Br)C(=O)/C(=C/c2ccccc2Br)C1 |  |  | > 80% | > 80% | > 50% | Active | Active | > 50% |
|  | O=C1/C(=C/c2ccccc2Br)COC/C1=C\c1ccccc1Br | inactive | inactive |  |  |  |  |  |  |
| Stable | CCN1C/C(=C\c2cccc(OC)c2OC)C(=O)/C(=C/c2cccc(OC)c2OC)C1 |  |  | > 80% | > 80% | > 50% | Active | Active | > 50% |
| Stable | O=C1/C(=C/c2cccc(O)c2)COC/C1=C\c1cccc(O)c1 |  |  | > 80% | > 80% | > 50% | Active | Active | > 50% |
